In patent US5654420A, “Process for preparing 2'-cyano pyrimidine nucleoside compounds” (Sankyo Company, Limited, priority 1990, dated 1997) one finds IC50 data, which are given here for two molecules.

This assay has as its system KB human oral epidermoid carcinoma. The assay can be described thus: Antitumor activity in vitro (MTT method, 72 h), KB. The format is cell-based. To be noted: 37° C., read-out: IC50 (concentration necessary for inhibiting proliferation of the cells to 50%). The protocol:
Antitumor activity was determined in vitro using a human cancer strain. As the culture medium for the cancer cell, an RPMI1640 solution containing 10% of […] bovine fetal serum 50 μg/ml of kanamycin was used. Cancer cells (1×10^4 cells/ml) were innoculated to 1 ml of the culture liquids containing samples at different concentrations, respectively, and cultured in a carbon dioxide gas incubator at 37° C. for 72 hours.
Viability of the cancer cells was determined by MTT method in which the amount of living cells in the culture liquids containing the sample and that in culture liquids containing no sample (blank group) are measured based on the intensity of the visible light using [3-(4,5-dimethylthiazol-2-yl)-2,5-diphenyl-tetrazolium bromide] which develops color in proportion to the number of living cells. The intensity of antitumor activity was expressed by IC50 value (concentration (μg/ml) necessary for inhibiting proliferation of the cells to 50%). The IC50 value was obtained from a graph illustrating the relationship between % proliferation of the cancer cells in the sample containing group (% relative to the blank group) and the concentration (logalithmic) of the sample.
KB: human oral epidermoid carcinoma
(Formazan colour is commonly taken as a measure of viable cells.)

Converted amounts (≈) assume the structure as drawn. Where a name gives a salt, the structure may show the parent alone.

Turning to `N#C[C@H]1[C@H](O)[C@@H](CO)O[C@H]1n1ccc(N)nc1=O` [Example 9, 1-(2'-Cyano-2'-deoxy-β-D-arabinofuranosyl)cytosine monohydrochloride], the IC50 came out at 15 µg/mL.

As to `Cc1cn([C@@H]2O[C@H](CO)C=C2C#N)c(=O)[nH]c1=O` [Example 12, 1-(2'-Cyano-2',3'-deoxy-2',3'-didehydro-β-D-ribofuranosyl)thymine], the IC50 came to 7.6 µg/mL (≈ 30.5 µM).
